Values quoted from earlier work, collected in patent US7799760B2 (Centro de Ingenieria Genetica y Biotecnologia, priority 2001, dated 2010).

Tested on: chronic neuropathic diabetic ulcers

## Becaplermin
In the third month
  rate of recurrence: about 30%
multicenter, controlled, randomized clinical trial in the USA, neuropathic foot ulcers with normal arterial blood supply, topical gel
  efficacy: 50%
